Test results published in patent US20120004282A1, “RNA Interference Mediated Inhibition of the Intercellular Adhesion Molecule 1 (ICAM-1) Gene Expression Using Short Interfering Nucleic Acid (siNA)” (Merck Sharp & Dohme Corp,, priority 2009, published 2012).
[invAb] = inverted abasic unit; m = 2'-O-methyl; r = 2'-OH (RNA); f = 2'-fluoro

Test system: human ICAM-2 mRNA transcript
Experiment: ICAM-2 mRNA specificity screen in human cells (Taqman RT-PCR)
Assay type: cell-based
Details: mean ± S.D., three independent experiments
Experimental: Calu-1 (human; ATCC cat# HTB-54): Cells were cultured at 37° C. in the presence of 5% CO2 and grown in McCoy's 5a medium supplemented with fetal bovine serum at a final concentration of 10% and 100 μg/mL of streptomycin and 100 U/mL penicillin.
Calu-1 cells were plated in all wells of a tissue-culture treated, 96-well plate at final counts of 5,000 cells/well in 100 μL of appropriate culture media. Cells were cultured for 24 hours after plating at 37° C. in the presence of 5% CO2.
After 24 hours, complexes containing siNA and RNAiMax were created as follows. A solution of RNAiMax diluted 33-fold in OPTI-MEM was prepared. In parallel, solutions of the siNAs for testing were prepared to a final concentration of 120 nM in OPTI-MEM. After incubation of RNAiMax/OPTI-MEM solution at room temperature for 5 min, an equal volume of the siNA solution and the RNAiMax solution were added together for each of the siNAs. […] This solution was incubated at room temperature for 20 minutes. After incubation, 20 uL of the solution was added to each of the relevant wells. The final concentration of siNA in each well was 10 nM and the final volume of RNAiMax in each well was 0.3 uL.
A series of probes and primers were used to detect the various mRNA transcripts of the genes of ICAM-1 and ICAM-2 in human cell lines (see Table 2). All the Taqman probes and primers for the experiments here-in described were supplied as pre-validated sets by Applied Biosystems, Inc., (see Table 2). The assays were performed on an ABI 7900 instrument, according to the manufacturer's instructions.
A TaqMan Gene Expression Master Mix (provided in the Cells-to-CT™, Applied Biosystems, Cat # 4399002) was used. The PCR reactions were carried out at 50° C. for 2 min, 95° C. for 20 min followed by 40 cycles at 95° C. for 15 secs and 60° C. for 1 min.
The expression level of the gene of interest and % knock-down was calculated using Comparative Ct method: […]
The non-targeting control siNA was, unless otherwise indicated, chosen as the value against which to calculate the % knock-down, because it is the most relevant control.
The specificity the six siNAs in Table 4 was also assessed. The siNAs were tested at 1 nM concentration to determine the effect of the ICAM-1 siNAs on the mRNA transcript of human ICAM-2.

Substance	% KD ICAM-2 1 nM [%]
29282-DC: siNA duplex, ICAM-1 target site 2113 (h); sense B cGcAucuGAucuGuAGucA TTB; antisense UGAcuAcAGAucAGAuGcGUU (sense CGCAUCUGAUCUGUAGUCATT; antisense UGACUACAGAUCAGAUGCGUU; sense: DNA at AGT, 2'-fluoro at CU, [invAb] at 5' end, 3' end, backbone not given here; antisense: sugars from the 5' end rrrffmfmmmffmmmfmfmmm, backbone not given here)	3 ± 6
29284-DC: siNA duplex, ICAM-1 target site 1141 (h); sense B cucAGucAGuGuGAccGcA TTB; antisense UGCGGucAcAcuGAcuGAGUU (sense CUCAGUCAGUGUGACCGCATT; antisense UGCGGUCACACUGACUGAGUU; sense: DNA at AGT, 2'-fluoro at CU, [invAb] at 5' end, 3' end, backbone not given here; antisense: sugars from the 5' end rrrmmffmfmffmmffmmmmm, backbone not given here)	6 ± 11
29285-DC: siNA duplex, ICAM-1 target site 537 (h); sense B GGAAcAAccGGAAGGuGuA TTB; antisense UACAccuuccGGuuGuuccUU (sense GGAACAACCGGAAGGUGUATT; antisense UACACCUUCCGGUUGUUCCUU; sense: DNA at AGT, 2'-fluoro at CU, [invAb] at 5' end, 3' end, backbone not given here; antisense: sugars from the 5' end rrrmffffffmmffmffffmm, backbone not given here)	11 ± 7
29286-DC: siNA duplex, ICAM-1 target site 1838 (h); sense B cGGAAGAucAAGAAAuAcA TTB; antisense UGUAuuucuuGAucuuccGUU (sense CGGAAGAUCAAGAAAUACATT; antisense UGUAUUUCUUGAUCUUCCGUU; sense: DNA at AGT, 2'-fluoro at CU, [invAb] at 5' end, 3' end, backbone not given here; antisense: sugars from the 5' end rrrmffffffmmffffffmmm, backbone not given here)	−3 ± 14
29288-DC: siNA duplex, ICAM-1 target site 2046 (h); sense B cAuuGuccucAGucAGAuA TTB; antisense UAUcuGAcuGAGGAcAAuGUU (sense CAUUGUCCUCAGUCAGAUATT; antisense UAUCUGACUGAGGACAAUGUU; sense: DNA at AGT, 2'-fluoro at CU, [invAb] at 5' end, 3' end, backbone not given here; antisense: sugars from the 5' end rrrffmmffmmmmrfmmfmmm, backbone not given here)	−9 ± 18
48722-DC: siNA duplex, ICAM-1 target site 2240 (h); sense B GAcAuAcAAcuGGGAAAuA TTB; antisense UAUuucccAGuuGuAuGucUU (sense GACAUACAACUGGGAAAUATT; antisense UAUUUCCCAGUUGUAUGUCUU; sense: DNA at AGT, 2'-fluoro at CU, [invAb] at 5' end, 3' end, backbone not given here; antisense: sugars from the 5' end rrrfffffmmffmfmfmffmm, backbone not given here)	−15 ± 29
